Assay results as given in publication PMC7717710, “Synthesis, computational studies and assessment of in vitro inhibitory activity of umbelliferon-based compounds against tumour-associated carbonic anhydrase isoforms IX and XII” (Journal of Enzyme Inhibition and Medicinal Chemistry, 2020).
Where two headings read alike, the source gives them in different places.

What was measured:
hCA II [1] = target: T1, hCA II (Homo sapiens, UniProt P00918); test: stopped-flow CO2 hydrase assay, hCA II; assay type: biochemical; settings: recombinant hCA II; stopped-flow CO2 hydration; 15 min preincubation; errors ± 10%, 3 assays; read-out: Inhibition data (Ki) hCA II
T1 construct: made in house
Protocol: (§1) An applied photophysics stopped-flow instrument has been used for assaying the CA catalysed CO2 hydration activity. Phenol red (at a concentration of 0.2 mM) has been used as an indicator, working at the absorbance maximum of 557 nm, with 10–20 mM Hepes (pH 7.5) or Tris (pH 8.3) as buffers, and 20 mM Na2SO4 or 20 mM NaClO4 (for maintaining constant the ionic strength), following the initial rates of the CA-catalysed CO2 hydration reaction for a period of 10–100 s. The CO2 concentrations ranged from 1.7 to 17 mM for the determination of the kinetic parameters and inhibition constants. For each inhibitor, at least six traces of the initial 5-10% of the reaction have been used for determining the initial velocity. The uncatalyzed rates were determined in the same manner and subtracted from the total observed rates. Stock solutions of inhibitor (10 mM) were prepared in distilled-deionized water and dilutions up to 0.01 nM were done thereafter with distilled-deionized water. Inhibitor and enzyme solutions were preincubated together for 15 min at room temperature prior to assay to allow for the formation of the E–I complex. The inhibition constants were obtained by non-linear least-squares methods using PRISM 3, as reported earlier and represent the mean from at least three different determinations. CA isoforms were recombinant ones obtained as reported earlier by this group.
(§2) This small series of coumarin derivatives 7–11, 15–17 were subjected to the stopped-flow CO2 hydrase assays to evaluate the binding affinity against the tumour-associated hCA IX and XII over ubiquitous isoforms hCA I and II.

hCA I [2] = target: T2, hCA I (Homo sapiens, UniProt P00915); test: stopped-flow CO2 hydrase assay, hCA I; assay type: biochemical; settings: recombinant hCA I; stopped-flow CO2 hydration; 15 min preincubation; errors ± 10%, 3 assays; read-out: Inhibition data (Ki) hCA I
T2 construct: made in house
T2 sequence (P00915 whole entry): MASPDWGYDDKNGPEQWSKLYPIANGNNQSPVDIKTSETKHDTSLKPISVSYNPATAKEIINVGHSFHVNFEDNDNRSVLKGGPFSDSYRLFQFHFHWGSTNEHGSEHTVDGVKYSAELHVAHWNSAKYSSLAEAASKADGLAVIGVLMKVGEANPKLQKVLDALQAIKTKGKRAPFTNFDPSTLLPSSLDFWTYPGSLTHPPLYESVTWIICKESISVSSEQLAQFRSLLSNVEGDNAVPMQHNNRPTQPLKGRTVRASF
Protocol: as §1, §2

hCA IX = target: T3, hCA IX (Homo sapiens, UniProt Q16790); test: stopped-flow CO2 hydrase assay, hCA IX; assay type: biochemical; settings: recombinant hCA IX; stopped-flow CO2 hydration; 15 min preincubation; errors ± 10%, 3 assays; read-out: Inhibition data (Ki) hCA IX
T3 construct: made in house
Protocol: as §1, §2

hCA XII = target: T4, hCA XII (Homo sapiens, UniProt O43570); test: stopped-flow CO2 hydrase assay, hCA XII; assay type: biochemical; settings: for Ki: recombinant hCA XII, stopped-flow CO2 hydration, 15 min preincubation, errors ± 10%, 3 assays, read-out: Inhibition data (Ki) hCA XII
T4 construct: made in house
T4 sequence (O43570 25-354): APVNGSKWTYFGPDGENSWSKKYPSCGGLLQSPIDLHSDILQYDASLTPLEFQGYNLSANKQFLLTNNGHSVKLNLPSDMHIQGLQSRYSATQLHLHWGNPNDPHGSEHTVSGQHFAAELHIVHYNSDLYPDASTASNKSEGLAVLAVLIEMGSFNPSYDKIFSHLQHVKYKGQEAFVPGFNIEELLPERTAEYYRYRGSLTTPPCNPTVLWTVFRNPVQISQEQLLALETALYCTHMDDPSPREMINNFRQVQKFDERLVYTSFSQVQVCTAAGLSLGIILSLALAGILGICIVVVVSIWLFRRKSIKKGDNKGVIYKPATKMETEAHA
Protocol: as §1, §2

hCA II [3] = target: T1, hCA II; set-up: method as in PMID 29197732; settings: reference compounds; read-out: Inhibition data (Ki) hCA II; cited from earlier work
hCA I [4] = target: T2, hCA I; set-up: method as in PMID 29197732; settings: reference compounds; read-out: Inhibition data (Ki) hCA I; cited from earlier work

SMILES	Ki (hCA II [1])	Ki (hCA I [2])	Ki (hCA IX)	Ki (hCA XII)	melting point	fold less active/efficient towards hCA XII than parent compound 3 (hCA XII; ratio of Ki values versus compound 3)	Ki (hCA II [3])	Ki (hCA I [4])
Nc1ccc(-c2cc(=O)oc3c(Cl)c(O)ccc23)cc1 [compound 17, 4-(4-aminophenyl)-8-chloro-7-hydroxy-2H-chromen-2-one]	> 10000 nM	> 10000 nM	180 nM	29.3 nM	313 to 315 °C	–	–	–
O=c1cc(-c2ccccc2)c2ccc(O)cc2o1 [compound 3, 7-hydroxy-4-phenyl-2H-chromen-2-one]	–	–	–	–	–	–	> 10000 nM	> 10000 nM
Cc1c(O)ccc2c(-c3ccc(N)cc3)cc(=O)oc12 [compound 4, 4-(4-aminophenyl)-7-hydroxy-8-methyl-2H-chromen-2-one]	–	–	–	–	–	–	> 10000 nM	> 10000 nM
O=c1cc(-c2ccccc2)c2ccc(O)c(Cl)c2o1 [compound 15, 8-Chloro-7-hydroxy-4-phenyl-2H-chromen-2-one]	> 10000 nM	> 10000 nM	261 nM	32 nM	214 to 215 °C	–	–	–
O=c1cc(-c2ccc([N+](=O)[O-])cc2)c2ccc(O)c(Cl)c2o1 [compound 16, 8-Chloro-7-hydroxy-4-(4-nitrophenyl)-2H-chromen-2-one]	–	–	–	–	303 to 305 °C	–	–	–

Now from value to compound, other results behind:

Ki (hCA II [1])	Ki (hCA I [2])	Ki (hCA IX)	Ki (hCA XII)	melting point	fold less active/efficient towards hCA XII than parent compound 3 (hCA XII; ratio of Ki values versus compound 3)	SMILES	Ki (hCA II [3])	Ki (hCA I [4])
> 10000 nM	> 10000 nM	56.2 nM	734 nM	129 to 131 °C	–	CC(=O)Oc1ccc2c(-c3ccccc3)cc(=O)oc2c1 [compound 7, 2-oxo-4-phenyl-2H-chromen-7-yl acetate]	–	–
> 10000 nM	> 10000 nM	177 nM	24.9 nM	–	–	CC(=O)c1c(O)ccc2c(-c3ccccc3)cc(=O)oc12 [compound 10, 8-Acetyl-7-hydroxy-4-phenyl-2H-chromen-2-one]	–	–
> 10000 nM	> 10000 nM	3040 nM	868 nM	172 to 174 °C	10 fold	CCC(=O)c1c(O)ccc2c(-c3ccccc3)cc(=O)oc12 [compound 11, 7-Hydroxy-4-phenyl-8-propanoyl-2H-chromen-2-one]	–	–
> 10000 nM	> 10000 nM	21.8 nM	385 nM	–	–	O=C(Oc1ccc2c(-c3ccccc3)cc(=O)oc2c1)c1ccccc1 [compound 9, 2-Oxo-4-phenyl-2H-chromen-7-yl benzoate]	–	–
> 10000 nM	> 10000 nM	97.8 nM	523 nM	172 to 174 °C	–	CCC(=O)Oc1ccc2c(-c3ccccc3)cc(=O)oc2c1 [compound 8, 2-Oxo-4-phenyl-2H-chromen-7-yl propionate]	–	–
